“And” between values parts separate entries of the source, which are not always exact repeats. Equal entries are not always repeated. “Also recorded” adds a separate entry of the source.
Tests used:
[1] = tested on: spontaneously beating guinea pig right atria; assay: isolated tissue: spontaneously beating right atria; conditions: concentrations ≦10 μM
Procedure: (§1) Purified P57AS3 was examined for binding affinity to a variety of receptors, channels, and uptake sites in vitro. […], In isolated tissue studies, P57AS3 at concentrations ≦10 μM had no effect on the rate of spontaneously beating guinea pig right atria or on the force of contraction of electrically stimulated left atria. […] P57AS3 had no effect on resting tension of isolated guinea pig gallbladder, ileum or trachea, or on CCK octapeptide-induced contractions of the gallbladder (CCK-A receptor mediated), histamine induced contractions of the guinea pig ileum (H1 receptor mediated), or acetylcholine-induced contractions of the guinea pig ileum (M3 receptor mediated).

[2] = tested on: isolated guinea pig trachea; assay: isolated tissue: resting tension of trachea
Procedure: as §1

H1 receptor = target: T1, H1 receptor (Cavia porcellus, UniProt P31389); assay: histamine induced contractions of the guinea pig ileum; conditions: H1 receptor mediated
T1 construct: histamine induced contractions of the guinea pig ileum (H1 receptor mediated); from tissue; host or cells: isolated guinea pig ileum
T1 sequence (P31389 whole entry): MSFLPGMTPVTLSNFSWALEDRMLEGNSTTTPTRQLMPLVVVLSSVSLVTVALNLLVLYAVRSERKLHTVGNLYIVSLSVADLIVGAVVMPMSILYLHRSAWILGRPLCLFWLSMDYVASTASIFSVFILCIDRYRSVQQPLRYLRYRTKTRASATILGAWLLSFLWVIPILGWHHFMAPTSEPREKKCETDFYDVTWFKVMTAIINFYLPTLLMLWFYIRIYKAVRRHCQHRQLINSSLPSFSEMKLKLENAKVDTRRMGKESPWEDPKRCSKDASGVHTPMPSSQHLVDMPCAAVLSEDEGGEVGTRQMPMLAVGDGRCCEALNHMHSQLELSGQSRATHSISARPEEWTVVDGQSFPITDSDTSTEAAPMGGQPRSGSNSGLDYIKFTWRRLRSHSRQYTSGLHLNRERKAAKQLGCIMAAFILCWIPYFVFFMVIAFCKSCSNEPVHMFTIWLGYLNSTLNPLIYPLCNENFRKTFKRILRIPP
Procedure: as §1

[3] = tested on: electrically stimulated left atria; assay: isolated tissue: electrically stimulated left atria; set-up: species or system guinea pig
Procedure: as §1

M3 receptor [4] = target: T2, M3 receptor (Cavia porcellus, UniProt H0W1Z3); assay: acetylcholine-induced contractions of the guinea pig ileum; conditions: M3 receptor mediated
T2 construct: acetylcholine-induced contractions of the guinea pig ileum (M3 receptor mediated); from tissue; host or cells: isolated guinea pig ileum
T2 sequence (H0W1Z3 1-590): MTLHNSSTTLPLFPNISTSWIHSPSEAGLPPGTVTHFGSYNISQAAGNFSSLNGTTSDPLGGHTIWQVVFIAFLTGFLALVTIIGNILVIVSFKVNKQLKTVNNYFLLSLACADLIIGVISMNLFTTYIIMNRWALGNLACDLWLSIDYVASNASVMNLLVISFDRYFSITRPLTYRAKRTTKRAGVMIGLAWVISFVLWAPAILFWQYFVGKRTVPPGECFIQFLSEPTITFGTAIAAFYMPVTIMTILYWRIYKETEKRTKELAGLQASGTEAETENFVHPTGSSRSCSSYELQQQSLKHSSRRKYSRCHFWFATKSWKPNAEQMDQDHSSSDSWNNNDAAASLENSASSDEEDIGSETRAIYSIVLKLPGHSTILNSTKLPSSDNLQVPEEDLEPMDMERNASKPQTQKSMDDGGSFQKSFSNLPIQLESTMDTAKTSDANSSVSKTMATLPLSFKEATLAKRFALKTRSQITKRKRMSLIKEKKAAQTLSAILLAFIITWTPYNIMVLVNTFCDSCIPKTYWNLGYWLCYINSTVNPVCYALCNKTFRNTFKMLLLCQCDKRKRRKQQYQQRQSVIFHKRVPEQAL
Procedure: as §1

M3 receptor [5] = assay: carbachol-induced contractions of the guinea pig trachea; conditions: M3 receptor mediated, concentrations ≧1 μM
Procedure: as §1

[6] = tested on: isolated guinea pig ileum; assay: isolated tissue: resting tension of ileum
Procedure: as §1

CCK-A receptor = target: T3, CCK-A receptor (Cavia porcellus, UniProt Q63931); assay: CCK octapeptide-induced contractions of the gallbladder; set-up: species or system guinea pig; conditions: CCK-A receptor mediated
T3 construct: P57AS3 had no effect on resting tension of isolated guinea pig gallbladder, ileum or trachea; from tissue; host or cells: isolated guinea pig gallbladder
T3 sequence (Q63931 1-430): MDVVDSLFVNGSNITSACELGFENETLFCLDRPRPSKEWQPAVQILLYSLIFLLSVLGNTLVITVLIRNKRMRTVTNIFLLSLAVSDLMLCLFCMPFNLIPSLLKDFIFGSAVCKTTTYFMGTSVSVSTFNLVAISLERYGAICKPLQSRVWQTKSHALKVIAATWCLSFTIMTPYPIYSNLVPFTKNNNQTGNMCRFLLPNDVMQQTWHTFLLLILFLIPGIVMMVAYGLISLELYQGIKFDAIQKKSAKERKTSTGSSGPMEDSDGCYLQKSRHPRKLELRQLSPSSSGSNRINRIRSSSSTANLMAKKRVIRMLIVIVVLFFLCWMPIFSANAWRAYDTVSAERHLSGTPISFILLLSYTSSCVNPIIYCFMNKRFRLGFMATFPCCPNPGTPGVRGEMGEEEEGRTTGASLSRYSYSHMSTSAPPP
Procedure: as §1

gastric acid secretion = gastric acid secretion in the pylorus-ligated rat; type: in vivo
Procedure: The effect of both the spray dried extract (sap from Hoodia gordonii)-referred to hereinafter as […]-and the purified compound P57AS3 were examined for effects on gastric acid secretion in the pylorus-ligated rat. Male Sprague-Dawley derived CD rats, 175-230 g, were used. On the day before the test, rats were outfitted with stainless steel tail cups to prevent coprophagy, housed individually with water allowed ad lib, and fasted overnight (18 hr). In one test the […] (5 or 50 mg/kg), or cimetidine (10 mg/kg) or vehicle (water) was orally administered to the rats immediately before fasting. Water was removed 30 minutes prior to ligation on the morning of the test. […] In a second experiment, purified compound P57AS3 was administered intraduodenally (i.d.) at 1 or 10 mg/kg at the time of the pylorus ligation. In this experiment with intraduodenal administration of P57AS3, vehicle (DMSO), cimetidine (10 mg/kg) or P57AS3 (1 or 10 mg/kg) was administered immediately after ligation. The incisions were then closed with staples. In the experiments with subcutaneous administration of P57, vehicle (DMSO), cimetidine (10 mg/kg) or P57, 10 or 30 mg/kg were injected subcutaneously in the nape of the neck immediately after the incisions were closed. Two hours after ligation, the rats were killed, the contents of each stomach collected and cleaned by centrifugation (30 minutes at 2000×g), and the volume of gastric fluid in each stomach was determined. Using a Radiometer pH meter and autotitrator, the pH and acid concentration of each gastric sample was determined by titration to pH 7 with 0.1N NaOH. Results are expressed as μeq/hr/100 g (body weight) and % vehicle control.

[7] = tested on: isolated guinea pig gallbladder; assay: isolated tissue: resting tension of gallbladder
Procedure: as §1

[8] = tested on: aspirin-induced damage to the stomach; assay: aspirin-induced damage to the stomach in the rat; type: in vivo; set-up: key to Gastric damage score (individual rat) / Gastric damage score, Mean: small haemorrhage 1, large haemorrhage 2, small ulcer 3, large ulcer 4 points; conditions: for average reduction in gastric damage: vs control group; for Gastric damage score, Mean / Gastric damage score (individual rat): aspirin about 600 mg/kg orally, after 5 hours; for Gastric damage score, Mean: mean of eight rats; for Gastric damage score (individual rat): single animals
Procedure: Three groups each containing eight rats were given aspirin in 0.5% CMC orally at a dose of about 600 mg/kg (1.0 ml of 60 mg/ml). The first group (the control group) was additionally given 0.5% CMC. The second group was given compound P57AS3 at a dose rate of 100 mg/kg; and the third group (comparative group) was given cimetidine at a dose rate of 20 mg/kg. […] Damage was assessed on a scale in which each small haemorrhage scored one point; each large haemorrhage scored two points; each small ulcer scored three points; and each large ulcer scored four points.

[9] = 10 mg/kg sc, 1 of 3 experiments

Compound: C/C=C(\C)C(=O)O[C@@H]1C[C@H]2[C@@H](CC=C3C[C@@H](O[C@H]4C[C@H](OC)[C@H](O[C@H]5C[C@H](OC)[C@H](O[C@@H]6O[C@H](C)[C@@H](O)[C@H](OC)[C@H]6O)[C@@H](C)O5)[C@@H](C)O4)CC[C@@]32C)[C@@]2(O)CC[C@H](C(C)=O)[C@@]12C [P57AS3, 3-O-[-β-D-thevetopyranosyl-(1→4)-β-D-cymaropyranosyl-(1→4)-β-D-cymaropyranosyl]-12β-O-tigloyloxy-14-hydroxy-14β-pregn-5-en-20-one]
- effect on the rate of spontaneously beating right atria [1]: no effect
- effect on resting tension of trachea [2]: no effect
- effect on histamine induced contractions of the ileum (H1 receptor): no effect
- effect on basal tension of electrically stimulated left atria ([3]; concentrations of 1 μM and higher): intermittent and transient elevations
- effect on the force of contraction of electrically stimulated left atria ([3]; concentrations ≦10 μM): no effect
- effect on acetylcholine-induced contractions of the ileum (M3 receptor [4]): no effect
- effect on carbachol-induced contractions of the trachea (M3 receptor [5]): noncompetitively inhibited
- effect on resting tension of ileum [6]: no effect
- effect on CCK octapeptide-induced contractions of the gallbladder (CCK-A receptor): no effect
- effect on gastric acid secretion (gastric acid secretion; 1 mg/kg i.d. at the time of pylorus ligation): no effect
- decrease of acid secretion (acid output) (gastric acid secretion; 10 mg/kg i.d. at the time of pylorus ligation): 88%
- effect on gastric acid secretion (gastric acid secretion; [9]): significant decrease
- reduction of gastric acid secretion (gastric acid secretion; [9]): 43%
- effect on gastric acid output (gastric acid secretion; 10 mg/kg sc, 2 of 3 experiments): not significantly different from vehicle-treated controls; also recorded: no effect
- effect on gastric acid output (gastric acid secretion; 30 mg/kg sc, one experiment): not significantly different from vehicle-treated controls; also recorded: no effect
- Acid Output % Control mean ± sd (gastric acid secretion; Exp. II, 1 mg/kg id): 109.0 ± 37.8 % Control
- Acid Output % Control mean ± sd (gastric acid secretion; Exp. II, 10 mg/kg id): 12.4 ± 1.1 % Control
- Acid Output % Control mean ± sd (gastric acid secretion; Exp. III, 10 mg/kg sc): 48.9 ± 29.2 % Control
- Acid Output % Control mean ± sd (gastric acid secretion; Exp. IV, 10 mg/kg sc): 74.0 ± 38.0 % Control
- Acid Output % Control mean ± sd (gastric acid secretion; Exp. V, 10 mg/kg sc): *57.1 ± 19.8 % Control
- Acid Output % Control mean ± sd (gastric acid secretion; Exp. VI, 30 mg/kg sc): 63.7 ± 17.3 % Control
- effect on resting tension of gallbladder [7]: no effect
- average reduction in gastric damage ([8]; 100 mg/kg): 91.5%
- Gastric damage score, Mean ([8]; oral 100 mg/kg): 0.63
- Gastric damage score (individual rat) ([8]; oral 100 mg/kg): 0 (6×) and 3 and 2

Compound: CN/C(=N/CCSCc1nc[nH]c1C)NC#N [Cimetidine, cimetidine, reference compound]
- average reduction in gastric damage ([8]; 20 mg/kg): 93.2%
- Gastric damage score, Mean ([8]; oral 20 mg/kg): 0.50
- Gastric damage score (individual rat) ([8]; oral 20 mg/kg): 0 (7×) and 4
